Measured values from the supplement of paper PMC6045584.

Key:
Assay in all cases: area under dose-response curve of surviving fraction (unscaled, Aref=0) (surviving fraction x log10(nM)); higher = more resistant
Conditions in all cases: exposure time: 5 days; dose range 0.5-1000 nM
[1] = compound: CS(=O)(=O)c1ccc(C(=O)Nc2ccc(Cl)c(-c3ccccn3)c2)c(Cl)c1 [VISMODEGIB]
How it was run: (§1)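 Surviving fractions were fitted by 3-parameter logistic regression in the drc R package to give dose-response survival curves. They came from tumour cell lines treated for five days with eight inhibitor concentrations from 0.5 to 1000 nM and read by CellTiter-Glo luminescence against DMSO-only wells. The area under the curve is the unscaled activity area. It was calculated over log10 dose with Aref = 0.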

[2] = compound: O=c1[nH]cc(F)c(=O)[nH]1 [FLUOROURACIL]
How it was run: as §1

[3] = compound: COc1ccc(C2=N[C@@H](c3ccc(Cl)cc3)[C@@H](c3ccc(Cl)cc3)N2C(=O)N2CCNC(=O)C2)c(OC(C)C)c1 [NUTLIN3]
How it was run: as §1

[4] = compound: CN1CC[C@H](c2c(O)cc(O)c3c(=O)cc(-c4ccccc4Cl)oc23)[C@H](O)C1 [FLAVOPIRIDOL]
How it was run: as §1

[5] = compound: Oc1ccc(/C=C/c2cc(O)cc(O)c2)cc1 [RESVERATROL]
How it was run: as §1

[6] = compound: Nc1ncn([C@H]2C[C@H](O)[C@@H](CO)O2)c(=O)n1 [DECITABINE]
How it was run: as §1

[7] = compound: CC[C@@H](C(=O)[C@@H](C)[C@@H](O)[C@H](C)[C@@H]1O[C@@H]([C@@H](CC)C(=O)O)CC[C@@H]1C)[C@H]1O[C@]2(C=C[C@@H](O)[C@]3(CC[C@@](C)([C@H]4CC[C@](O)(CC)[C@H](C)O4)O3)O2)[C@H](C)C[C@@H]1C [SALINOMYCIN]
How it was run: as §1

[8] = compound: CCN(CC)CCCCNc1ncc2cc(-c3cc(OC)cc(OC)c3)c(NC(=O)NC(C)(C)C)nc2n1
How it was run: as §1

[9] = compound: C=CCNC1=C2C[C@@H](C)C[C@H](OC)[C@H](O)[C@@H](C)/C=C(\C)[C@H](OC(N)=O)[C@@H](OC)/C=C\C=C(/C)C(=O)NC(=CC1=O)C2=O [17-AAG]
How it was run: as §1

[10] = compound: CS(=O)(=O)CCNCc1ccc(-c2ccc3ncnc(Nc4ccc(OCc5cccc(F)c5)c(Cl)c4)c3c2)o1 [LAPATINIB]
How it was run: as §1

[11] = compound: COc1cccc2c1C(=O)c1c(O)c3c(c(O)c1C2=O)C[C@@](O)(C(=O)CO)C[C@@H]3O[C@H]1C[C@H](N)[C@H](O)[C@H](C)O1 [DOXORUBICIN]
How it was run: as §1

[12] = compound: COc1cc2c(cc1O)CC[C@@H]1[C@@H]2CC[C@]2(C)[C@@H](O)CC[C@@H]12 [2-METHOXYESTRADIOL]
How it was run: as §1

[13] = compound: CN(C)CC[C@H](CSc1ccccc1)Nc1ccc(S(=O)(=O)NC(=O)c2ccc(N3CCN(Cc4ccccc4-c4ccc(Cl)cc4)CC3)cc2)cc1[N+](=O)[O-] [ABT-737]
How it was run: as §1

Row | Test System | area under dose-response curve [1] | area under dose-response curve [2] | area under dose-response curve [3] | area under dose-response curve [4] | area under dose-response curve [5] | area under dose-response curve [6] | area under dose-response curve [7] | area under dose-response curve [8] | area under dose-response curve [9] | area under dose-response curve [10] | area under dose-response curve [11] | area under dose-response curve [12] | area under dose-response curve [13]
1 | SUM44 BREAST | 3.11 | 3.15 | 3.26 | 2.36 | 3.94 | 3.87 | 3.22 | 3.27 | 2.02 | 3.72 | 2.59 |  | 
2 | HCT15 LARGE INTESTINE | 3.26 | 2.73 | 3.38 | 2.01 | 3.39 | 3.19 | 2.74 | 3.28 | 1.85 |  | 2.07 | 2.65 | 3.46
3 | VCAP PROSTATE | 3.36 |  | 3.78 | 2.26 | 3.11 | 3.68 | 2.89 | 3.48 | 2.25 | 3.07 | 2.3 | 3.12 | 3.49
4 | HCC78 LUNG | 3.52 | 3.24 | 3.02 | 1.62 |  | 2.49 | 2.33 | 3.12 | 1.44 | 2.99 | 1.2 | 2.57 | 
5 | SUM149.B1*.S BREAST |  |  | 3.61 | 2.37 | 3.7 |  | 2.9 |  | 1.93 |  | 2 | 3.49 | 3.79
6 | NY BONE | 3.28 |  | 3.28 | 2.12 | 3.32 | 2.91 | 2.53 | 2.65 | 1.6 | 3.43 | 1.85 | 2.83 | 3.42
7 | CHLA90 AUTONOMIC GANGLIA | 3.12 |  | 3.33 | 2.36 | 3.38 |  | 2.67 | 2.92 | 2.06 |  | 1.8 | 3.22 | 3.26
8 | SAOS2 BONE | 3.12 | 2.91 | 3.66 | 2.19 | 4.04 | 3.06 | 3.15 | 3.79 | 1.66 | 3.95 | 1.85 |  | 3.87
9 | SNU475 LIVER | 3.06 | 3.03 | 3.32 | 2.33 | 3.3 | 3.4 | 2.58 | 3.01 | 1.66 |  | 2.22 | 3.26 | 3.39
10 | LNCAP PROSTATE |  |  | 2.82 | 1.78 | 3.05 | 2.75 | 1.9 | 2.96 | 1.33 | 3.12 | 1.09 | 2.89 | 3.07
11 | JURKAT HAEMATOPOIETIC AND LYMPHOID TISSUE |  |  | 3.49 | 2.12 | 3.34 | 1.56 | 2.52 | 3.44 | 2.65 | 3.21 | 1.12 | 2.65 | 3.08
12 | 143B BONE | 3.22 |  | 3.5 |  |  |  | 3.23 | 3.04 | 2.38 |  | 2.11 |  | 
13 | SG27 HEADNECK | 3.18 | 3.48 |  | 2.29 | 3.59 | 3.79 | 2.95 | 3.03 | 2.94 |  | 2.61 | 3.61 | 
14 | SCC47 HEADNECK | 3.19 | 3.44 | 3.66 | 2.12 | 3.79 |  | 3.07 | 3.33 | 2.29 |  | 2.27 | 3.24 | 3.89
15 | RDES SOFT TISSUE |  | 3.48 | 3.98 | 2.51 | 4.59 | 3.9 | 2.26 | 3.98 | 2.13 | 4.08 | 1.97 |  | 2.58
16 | SG28 HEADNECK | 3 |  | 3.29 |  |  |  | 2.71 | 3.28 | 1.95 |  | 2.4 |  | 
17 | MDAMB157 BREAST | 3.26 |  | 3.22 | 2.21 | 3.39 | 2.4 | 2.66 | 2.73 | 1.61 | 3.27 | 1.21 | 3.1 | 3.26
18 | HT1080 SOFT TISSUE | 3.25 | 3.06 | 3.11 | 2.07 | 3.35 | 3.03 | 3.16 | 3.39 | 2.11 | 3.4 | 1.29 | 3.11 | 
19 | CME SYNOVIAL | 3.77 |  | 4.32 | 2.35 | 4.4 | 2.82 | 2.88 | 3.88 | 1.9 | 4.25 | 1.52 |  | 4.41
20 | U2OS BONE | 3.48 | 3.18 | 3.28 | 2.2 | 3.48 | 3.01 | 3.16 | 3 | 2.13 |  | 1.98 | 3.08 | 3.49
21 | HCC202 BREAST | 3.06 |  | 3.88 |  |  |  | 2.48 | 4.1 | 1.59 |  | 2.27 |  | 
22 | 93VU HEADNECK |  | 3.04 | 3.56 | 2.13 | 3.7 | 3.07 | 2.79 |  | 2.32 | 2.8 | 2.39 | 3.08 | 
23 | CADOES1 SOFT TISSUE | 3.17 | 3.05 | 2.81 | 1.8 | 3.21 | 2.23 | 2.37 | 3.03 | 2.76 |  | 1.99 | 3.23 | 2.63

Row | Test System | area under dose-response curve [1] | area under dose-response curve [2] | area under dose-response curve [3] | area under dose-response curve [4] | area under dose-response curve [5] | area under dose-response curve [6] | area under dose-response curve [7] | area under dose-response curve [8] | area under dose-response curve [9] | area under dose-response curve [10] | area under dose-response curve [11] | area under dose-response curve [12] | area under dose-response curve [13]
24 | YAMATO SYNOVIAL |  | 3 | 4.58 | 2.38 |  |  | 2.25 | 3.96 | 2.65 | 4.08 | 2.03 | 3.05 | 4.34
25 | SG32 HEADNECK |  |  | 3.75 | 1.72 | 3.38 |  | 2.42 | 3.36 | 1.96 | 3.6 | 1.68 | 2.92 | 3.48
26 | MDAMB453 BREAST | 3.16 | 3.14 | 3.54 | 2.12 | 3.63 |  | 3.04 | 3.28 | 1.3 | 3.21 | 2.24 | 3.02 | 3.59
27 | NCIH441 LUNG | 3.27 |  | 3.56 | 2.48 | 3.72 | 2.57 | 3.12 | 3.37 | 2.37 | 3.58 | 2.15 | 3.22 | 
28 | SJSA1 BONE | 3.35 |  | 3.18 | 2.96 | 5.61 | 4.52 | 2.91 | 3.48 | 1.72 | 5.27 | 1.9 | 5.58 | 5.63
29 | BT549 BREAST | 2.93 | 2.98 | 3.68 | 2.02 | 3.52 | 2.69 | 2.75 |  | 1.1 | 3.45 | 1.41 | 3.02 | 
30 | SCC36 HEADNECK | 2.89 | 2.79 | 3.65 | 2.3 | 3.87 | 3.08 | 2.7 |  | 1.66 | 2.91 | 1.98 |  | 3.58
31 | SG43 HEADNECK |  | 3.27 | 2.8 | 2.35 | 2.91 |  | 3.03 | 3.03 | 1.77 | 2.24 | 1.71 | 2.84 | 2.77
32 | ZR751 BREAST | 2.87 |  |  | 2.38 | 3.31 |  | 2.67 | 3.3 | 1.74 | 2.92 | 2.06 |  | 3.53
33 | MDAMB468 BREAST | 3.19 | 2.83 | 3.39 | 2.15 | 3.56 | 2.63 | 3.08 | 3.27 | 2.41 |  | 2.09 | 3.5 | 3.62
34 | S68 BREAST | 3.02 | 2.83 | 3.12 | 2.32 | 3.12 | 2.84 | 2.67 | 3.23 | 0.636 |  | 1.32 | 3.07 | 3.67
35 | BT20 BREAST | 3.18 |  | 3.59 | 2.22 | 3.71 | 4.16 | 3.84 | 3.96 | 1.37 | 3.84 | 1.48 |  | 
36 | VP229 BREAST | 3.65 | 2.98 | 3.5 | 2.08 |  |  | 2.4 | 3.78 | 1.93 | 3.02 | 2.61 | 3.43 | 3.82
37 | NOS1 BONE |  |  | 3.66 | 2.06 | 3.77 | 3.34 | 2.83 | 3.02 | 1.6 | 3.54 | 2.15 |  | 3.75
38 | SG31 HEADNECK | 3.05 |  | 3.23 | 2.03 |  |  | 2.81 | 3.09 | 1.94 |  | 2.02 | 3.42 | 3.88
39 | OS25HAL BONE | 3.29 |  | 3.29 | 2.25 | 3.4 | 3.53 | 2.57 | 3.27 | 2.56 | 3.47 | 1.87 | 3.02 | 3.39
40 | 22RV1 PROSTATE | 3.35 | 3.25 | 3.26 | 2.35 | 3.4 | 2.81 | 2.38 | 3.33 | 2.24 | 3.42 | 1.31 |  | 
41 | HUO3N1 BONE |  | 3.28 | 3.41 | 2.49 | 3.49 |  | 2.41 | 3.05 | 2.3 | 3.26 | 2 | 3.2 | 
42 | OSHN BONE | 3.27 |  | 3.52 | 2.31 | 3.6 | 3.71 | 2.81 | 3.35 | 2.3 | 3.55 | 1.98 | 3.21 | 3.58
43 | ASKA SYNOVIAL | 3.21 |  |  | 2.27 | 3.84 | 3.08 | 3.15 |  | 1.27 | 3.82 | 0.989 | 3.04 | 
44 | SIHA CERVIX |  |  | 3.54 | 2.19 | 3.61 | 3.46 | 2.93 | 3.08 | 2.23 | 3.53 | 2.16 | 3.15 | 3.73
45 | SUM159 BREAST |  | 3.29 | 3.27 | 2.38 | 3.53 | 3.48 | 2.31 | 3.75 | 1.72 | 3.55 | 1.84 | 3.24 | 
